In US11795180B2, “Formulation of a pan-JAK inhibitor” (THERAVANCE BIOPHARMA R&D IP, LLC, priority 2020, dated 2023):

Assays:
[1] = Dissolution profiles of tablets with 3% magnesium stearate (blending process, particle size); type: physicochemical; settings: tablet with 3% magnesium stearate, Compound I particles blended with a filler, no pre-blending with hydrophobic colloidal silicon dioxide
Description: […] The particle size of Compound I was determined by static image analysis.
During manufacturing of certain tablets comprising 0.5-1% magnesium stearate, film formation on tablet punches was observed. The film formed after compression of a few tablets. After extensive investigation, the problem was resolved by increasing the magnesium stearate content in the composition up to 3%. […]
Using this manufacturing procedure, consistently fast dissolution profiles were obtained for different particle sizes of Compound I without leading to the unwanted film formation on tablet punches. Dissolution profiles of tablets manufactured according to this procedure and containing various particle sizes of Compound I are depicted in FIG. 9.

[2] = Drug concentration in stool samples of healthy human subjects; type: in vivo
Excerpt: As described previously in U.S. Pat. No. 9,725,470, the absorption and distribution of Compound I has been extensively profiled in preclinical assays. […] In addition, Compound I is designed to have its effect at the site of action in the gastrointestinal tract.

[3] = test system: oxazolone-induced colitis; assay: Oxazolone-induced colitis model; type: in vivo; settings: mice
Excerpt: (§1) Oxazolone-induced colitis is an experimental model that has a histological resemblance to human ulcerative colitis.

[4] = test system: immunosuppression; assay: Immunosuppression model (systemic functional activity); type: in vivo; settings: mice, same dose required to demonstrate efficacy in the oxazolone model
Excerpt: as §1

[5] = target: JAK1 (Homo sapiens, UniProt P23458); settings: cited from earlier work
[6] = target: JAK2 (Homo sapiens, UniProt O60674); settings: cited from earlier work
[7] = target: T1, JAK3 (Homo sapiens, UniProt P52333); settings: cited from earlier work
T1 sequence (P52333 1-1124): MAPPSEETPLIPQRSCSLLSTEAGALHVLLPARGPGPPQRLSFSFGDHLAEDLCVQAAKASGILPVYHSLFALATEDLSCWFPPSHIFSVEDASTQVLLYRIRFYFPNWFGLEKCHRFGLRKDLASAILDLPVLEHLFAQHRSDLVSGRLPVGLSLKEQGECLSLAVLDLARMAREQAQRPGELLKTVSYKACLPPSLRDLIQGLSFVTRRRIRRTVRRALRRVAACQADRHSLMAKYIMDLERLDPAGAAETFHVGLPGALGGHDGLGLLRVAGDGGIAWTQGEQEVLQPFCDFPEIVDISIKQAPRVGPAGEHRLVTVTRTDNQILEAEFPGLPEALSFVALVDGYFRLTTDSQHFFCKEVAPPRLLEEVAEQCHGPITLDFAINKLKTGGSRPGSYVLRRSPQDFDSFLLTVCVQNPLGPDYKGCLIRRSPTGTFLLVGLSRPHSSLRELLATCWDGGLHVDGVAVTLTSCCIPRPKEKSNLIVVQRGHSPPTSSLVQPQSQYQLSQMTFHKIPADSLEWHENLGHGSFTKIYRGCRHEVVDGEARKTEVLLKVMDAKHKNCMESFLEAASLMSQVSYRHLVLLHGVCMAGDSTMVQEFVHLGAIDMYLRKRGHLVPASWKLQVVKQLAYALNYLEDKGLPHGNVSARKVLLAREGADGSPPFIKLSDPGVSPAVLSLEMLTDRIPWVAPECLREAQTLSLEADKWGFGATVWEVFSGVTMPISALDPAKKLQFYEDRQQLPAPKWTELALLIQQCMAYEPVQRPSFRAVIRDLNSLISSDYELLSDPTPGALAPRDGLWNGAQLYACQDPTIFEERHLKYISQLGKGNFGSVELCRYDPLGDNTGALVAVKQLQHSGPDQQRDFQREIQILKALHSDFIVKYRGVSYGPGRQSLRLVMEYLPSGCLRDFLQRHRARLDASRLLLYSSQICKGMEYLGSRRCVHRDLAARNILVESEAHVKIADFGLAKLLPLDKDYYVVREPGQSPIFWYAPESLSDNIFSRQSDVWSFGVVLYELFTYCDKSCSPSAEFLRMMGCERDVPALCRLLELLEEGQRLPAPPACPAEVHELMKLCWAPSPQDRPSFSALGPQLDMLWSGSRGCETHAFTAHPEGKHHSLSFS

[8] = target: TYK2 (Homo sapiens, UniProt P29597); settings: cited from earlier work
[9] = cannulated rats; cited from earlier work
[10] = rat; cited from earlier work
[11] = oral dosing, preclinical species; cited from earlier work

Sequence of JAK1 (P23458 whole entry): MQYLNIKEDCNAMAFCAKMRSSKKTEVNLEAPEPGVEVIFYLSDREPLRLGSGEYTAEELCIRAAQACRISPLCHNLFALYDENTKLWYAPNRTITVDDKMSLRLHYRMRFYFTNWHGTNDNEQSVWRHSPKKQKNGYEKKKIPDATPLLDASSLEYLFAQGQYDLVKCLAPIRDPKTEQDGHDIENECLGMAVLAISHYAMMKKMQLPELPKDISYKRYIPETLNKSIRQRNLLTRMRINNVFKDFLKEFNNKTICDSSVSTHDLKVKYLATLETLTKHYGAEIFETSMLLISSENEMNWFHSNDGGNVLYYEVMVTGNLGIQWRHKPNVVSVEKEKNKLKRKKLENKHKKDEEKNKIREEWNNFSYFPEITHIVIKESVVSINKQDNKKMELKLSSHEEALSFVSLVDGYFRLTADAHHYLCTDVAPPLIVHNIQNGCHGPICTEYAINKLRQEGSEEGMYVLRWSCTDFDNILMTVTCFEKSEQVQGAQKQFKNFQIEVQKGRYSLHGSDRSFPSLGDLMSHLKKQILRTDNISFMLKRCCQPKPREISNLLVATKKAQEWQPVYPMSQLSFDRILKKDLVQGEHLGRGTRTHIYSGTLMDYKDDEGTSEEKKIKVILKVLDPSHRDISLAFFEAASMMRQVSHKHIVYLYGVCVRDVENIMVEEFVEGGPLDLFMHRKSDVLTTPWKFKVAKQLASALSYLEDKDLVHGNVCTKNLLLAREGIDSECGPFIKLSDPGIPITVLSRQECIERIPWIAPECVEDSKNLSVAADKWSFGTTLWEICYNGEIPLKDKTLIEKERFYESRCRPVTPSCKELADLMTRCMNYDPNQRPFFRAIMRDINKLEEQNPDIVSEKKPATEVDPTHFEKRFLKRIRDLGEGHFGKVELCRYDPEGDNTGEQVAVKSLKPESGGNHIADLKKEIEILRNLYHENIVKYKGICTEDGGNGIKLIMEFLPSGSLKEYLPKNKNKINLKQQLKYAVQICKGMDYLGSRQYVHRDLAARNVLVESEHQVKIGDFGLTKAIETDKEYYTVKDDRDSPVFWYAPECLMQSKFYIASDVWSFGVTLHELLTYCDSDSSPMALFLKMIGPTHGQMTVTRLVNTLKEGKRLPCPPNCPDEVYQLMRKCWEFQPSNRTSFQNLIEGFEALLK
Sequence of TYK2 (P29597 whole entry): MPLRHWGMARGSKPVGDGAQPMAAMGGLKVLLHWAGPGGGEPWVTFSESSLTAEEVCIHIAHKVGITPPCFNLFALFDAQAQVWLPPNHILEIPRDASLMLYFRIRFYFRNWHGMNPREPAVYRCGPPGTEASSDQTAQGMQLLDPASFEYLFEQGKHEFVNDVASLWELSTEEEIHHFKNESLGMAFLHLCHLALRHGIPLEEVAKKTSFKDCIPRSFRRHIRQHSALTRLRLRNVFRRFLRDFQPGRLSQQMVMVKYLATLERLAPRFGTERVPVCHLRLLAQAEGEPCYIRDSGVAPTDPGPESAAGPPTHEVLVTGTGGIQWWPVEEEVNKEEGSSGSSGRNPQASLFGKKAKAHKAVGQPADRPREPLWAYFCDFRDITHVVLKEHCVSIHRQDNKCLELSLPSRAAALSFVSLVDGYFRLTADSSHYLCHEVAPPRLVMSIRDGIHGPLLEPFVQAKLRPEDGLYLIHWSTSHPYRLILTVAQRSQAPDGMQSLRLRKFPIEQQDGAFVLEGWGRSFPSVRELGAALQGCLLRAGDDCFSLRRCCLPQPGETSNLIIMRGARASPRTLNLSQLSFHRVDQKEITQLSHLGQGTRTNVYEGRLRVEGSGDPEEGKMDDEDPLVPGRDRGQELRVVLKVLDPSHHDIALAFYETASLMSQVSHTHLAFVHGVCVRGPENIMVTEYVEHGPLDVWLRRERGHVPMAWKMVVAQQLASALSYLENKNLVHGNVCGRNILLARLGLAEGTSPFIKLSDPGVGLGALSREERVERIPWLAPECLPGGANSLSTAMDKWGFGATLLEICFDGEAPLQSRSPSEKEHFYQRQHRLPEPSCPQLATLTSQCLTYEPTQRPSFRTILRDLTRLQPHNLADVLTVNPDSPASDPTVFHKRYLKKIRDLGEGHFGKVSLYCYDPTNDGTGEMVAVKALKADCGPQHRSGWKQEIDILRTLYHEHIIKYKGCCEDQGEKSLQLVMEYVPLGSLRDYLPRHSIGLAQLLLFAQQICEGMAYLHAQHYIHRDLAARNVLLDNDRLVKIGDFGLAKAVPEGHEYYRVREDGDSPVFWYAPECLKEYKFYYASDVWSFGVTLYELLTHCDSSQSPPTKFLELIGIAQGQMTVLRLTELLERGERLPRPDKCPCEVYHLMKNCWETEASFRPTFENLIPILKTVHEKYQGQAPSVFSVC
Sequence of JAK2 (O60674 whole entry): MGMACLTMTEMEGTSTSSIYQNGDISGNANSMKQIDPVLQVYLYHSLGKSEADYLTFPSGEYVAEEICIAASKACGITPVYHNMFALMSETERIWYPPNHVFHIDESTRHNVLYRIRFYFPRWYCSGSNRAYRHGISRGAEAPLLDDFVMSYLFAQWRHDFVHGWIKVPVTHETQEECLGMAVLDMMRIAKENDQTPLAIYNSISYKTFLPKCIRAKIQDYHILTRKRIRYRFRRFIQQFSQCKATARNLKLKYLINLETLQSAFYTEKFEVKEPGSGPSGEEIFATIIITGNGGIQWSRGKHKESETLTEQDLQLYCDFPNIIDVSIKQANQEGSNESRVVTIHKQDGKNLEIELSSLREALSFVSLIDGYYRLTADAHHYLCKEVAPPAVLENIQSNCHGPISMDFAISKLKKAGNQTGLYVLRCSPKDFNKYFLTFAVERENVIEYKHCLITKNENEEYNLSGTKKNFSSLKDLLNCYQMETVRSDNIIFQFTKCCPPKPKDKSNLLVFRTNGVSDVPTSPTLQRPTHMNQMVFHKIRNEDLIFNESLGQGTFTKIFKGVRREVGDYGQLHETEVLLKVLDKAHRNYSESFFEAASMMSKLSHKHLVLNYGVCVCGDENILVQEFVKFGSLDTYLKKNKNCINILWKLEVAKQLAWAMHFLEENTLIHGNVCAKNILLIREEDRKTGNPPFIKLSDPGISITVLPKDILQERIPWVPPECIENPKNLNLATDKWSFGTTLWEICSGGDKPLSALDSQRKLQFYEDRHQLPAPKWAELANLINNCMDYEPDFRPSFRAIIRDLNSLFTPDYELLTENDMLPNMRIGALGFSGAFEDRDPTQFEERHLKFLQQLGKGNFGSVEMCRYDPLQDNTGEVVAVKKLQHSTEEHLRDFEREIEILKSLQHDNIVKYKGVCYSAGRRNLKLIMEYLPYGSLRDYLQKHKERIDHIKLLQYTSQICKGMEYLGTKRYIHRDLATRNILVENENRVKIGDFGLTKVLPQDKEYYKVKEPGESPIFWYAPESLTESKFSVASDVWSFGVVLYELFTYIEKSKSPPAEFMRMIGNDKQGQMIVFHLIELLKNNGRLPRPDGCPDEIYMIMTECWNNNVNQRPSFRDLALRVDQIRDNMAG

For Cc1cc(Nc2cc3ncccc3c(N[C@@H]3C[C@H]4CC[C@@H](C3)N4CCC#N)n2)n[nH]1 [Compound I, 3-((1R,3s,5S)-3-((7-((5-methyl-1H-pyrazol-3-yl)amino)-1,6-naphthyridin-5-yl)amino)-8-azabicyclo[3.2.1]octan-8-yl)propanenitrile], the “Dissolution rate (FIG. 8)” value [1] was “reduced dissolution rate”, the “Drug concentration in stool samples” value [2] was “high drug concentration” and the “Activity in the oxazolone-induced colitis model” value [3] was “demonstrated activity”. The Effect of immunosuppression [4] was “minimal effect of immunosuppression”, the “Inhibition of JAK1” value [5] was “potent inhibitor” and the “Inhibition of JAK2” value [6] was “potent inhibitor”. The “Inhibition of JAK3” value [7] was “potent inhibitor”, the “Inhibition of TYK2” value [8] was “potent inhibitor” and the “Absorption into plasma at the portal vein” value [9] was “low absorption”. The “Ratio of exposure in the colon to exposure in plasma” value [10] was “greater than 450” and the “Exposure throughout the gastrointestinal tract compared with exposure in plasma” value [11] was “significantly higher exposure”.
